Values quoted from earlier work, collected in patent publication US6369046B1, “Methods for treating dementia” (The Board of Trustees of the Leland Stanford Junior …, priority 1998, dated 2002).

Assays:
[1] = biological target: T1, glucocorticoid (GR) receptor (Homo sapiens, UniProt P04150); conditions: Bocquel (1993) for RU009; cited from earlier work
T1 sequence (P04150 1-777): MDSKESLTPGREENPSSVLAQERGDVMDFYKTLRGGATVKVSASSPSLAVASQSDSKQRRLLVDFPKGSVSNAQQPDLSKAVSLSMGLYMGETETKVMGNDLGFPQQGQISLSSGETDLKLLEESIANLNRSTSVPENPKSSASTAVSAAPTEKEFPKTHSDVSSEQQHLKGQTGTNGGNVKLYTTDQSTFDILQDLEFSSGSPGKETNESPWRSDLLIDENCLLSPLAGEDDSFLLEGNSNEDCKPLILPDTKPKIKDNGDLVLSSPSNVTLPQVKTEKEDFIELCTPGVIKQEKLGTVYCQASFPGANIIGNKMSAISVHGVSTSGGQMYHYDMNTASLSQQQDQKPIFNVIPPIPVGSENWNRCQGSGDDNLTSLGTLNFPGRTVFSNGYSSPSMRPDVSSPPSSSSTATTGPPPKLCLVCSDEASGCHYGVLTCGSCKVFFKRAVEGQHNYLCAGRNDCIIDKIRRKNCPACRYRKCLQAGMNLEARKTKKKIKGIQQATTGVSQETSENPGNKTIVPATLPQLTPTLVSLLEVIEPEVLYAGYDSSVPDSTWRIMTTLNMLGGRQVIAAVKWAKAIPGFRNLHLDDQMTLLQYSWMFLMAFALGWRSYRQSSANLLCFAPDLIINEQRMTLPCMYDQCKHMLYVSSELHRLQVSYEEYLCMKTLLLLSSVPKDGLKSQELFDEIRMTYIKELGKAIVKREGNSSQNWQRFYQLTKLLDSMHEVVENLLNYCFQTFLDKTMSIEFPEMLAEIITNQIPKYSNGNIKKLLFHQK

progesterone receptor = biological target: T2, progesterone receptor (Homo sapiens, UniProt P06401); conditions: cited from earlier work
T2 sequence (P06401 1-933): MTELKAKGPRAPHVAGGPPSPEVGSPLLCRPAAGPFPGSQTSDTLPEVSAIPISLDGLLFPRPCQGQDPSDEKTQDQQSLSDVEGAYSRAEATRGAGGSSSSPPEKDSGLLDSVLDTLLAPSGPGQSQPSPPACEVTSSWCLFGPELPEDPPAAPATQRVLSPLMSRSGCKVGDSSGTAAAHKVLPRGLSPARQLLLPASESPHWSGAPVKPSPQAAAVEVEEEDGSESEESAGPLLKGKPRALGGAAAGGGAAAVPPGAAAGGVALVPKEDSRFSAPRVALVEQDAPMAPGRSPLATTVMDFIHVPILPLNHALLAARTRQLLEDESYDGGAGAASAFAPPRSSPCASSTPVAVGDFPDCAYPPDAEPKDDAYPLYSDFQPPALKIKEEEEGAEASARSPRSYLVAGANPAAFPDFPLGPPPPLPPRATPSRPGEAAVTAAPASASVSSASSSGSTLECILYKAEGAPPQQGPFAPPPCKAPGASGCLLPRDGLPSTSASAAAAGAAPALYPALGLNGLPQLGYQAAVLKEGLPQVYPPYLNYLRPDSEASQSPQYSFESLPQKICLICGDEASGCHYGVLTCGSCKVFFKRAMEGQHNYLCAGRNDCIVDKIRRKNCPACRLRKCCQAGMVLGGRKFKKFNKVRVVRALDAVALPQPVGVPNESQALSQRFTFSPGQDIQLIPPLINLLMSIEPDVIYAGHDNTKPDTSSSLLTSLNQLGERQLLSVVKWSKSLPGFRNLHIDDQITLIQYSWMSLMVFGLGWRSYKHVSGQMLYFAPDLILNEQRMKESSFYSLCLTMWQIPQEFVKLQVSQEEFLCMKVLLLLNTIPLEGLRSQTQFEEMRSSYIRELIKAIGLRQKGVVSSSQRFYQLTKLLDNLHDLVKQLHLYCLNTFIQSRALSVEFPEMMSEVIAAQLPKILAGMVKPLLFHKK

[2] = Kawai (1989) supra; cited from earlier work

Row | SMILES | GR antagonism [1] | progesterone receptor antagonism (progesterone receptor) | fraction of the daily dose excreted in the urine [2]
1 | CC#C[C@]1(O)CC[C@H]2[C@@H]3CCC4=CC(=O)CCC4=C3[C@@H](c3ccc(N(C)C)cc3)C[C@@]21C [mifepristone, 17-beta-hydroxy-11-beta-(4-dimethyl-aminophenyl)-17-alpha-(1-propynyl)-estra-4,9-dien-3-one] | powerful antagonist | powerful antagonist | less than 0.5 % of the daily dose
2 | CC#C[C@]1(O)CC[C@H]2[C@@H]3CCC4=CC(=O)CCC4=C3[C@@H](c3ccc(OCCN(C)C)cc3)C[C@@]21C [RU009, 11-beta-(4-dimethyl-aminoethoxyphenyl)-1 7-alpha-(propynyl-17 beta-hydroxy-4,9-estradien-3-one)] | GR antagonist effects |  | 
